Measured values published in patent publication US5990083A, “Multicatalytic protease inhibitors” (Cephalon, Inc., priority 1997, dated 1999).

System: unweighting atrophy of the soleus muscle
Experiment: Inhibition of unweighting atrophy of the soleus muscle in juvenile rats (muscle protein content)
Format: in vivo, rat
Details: for Protein, End (day 3 of unweighting) / Effect (%), change in protein content during day 3 of unweighting: Table 2; for Protein, End (day 3 of unweighting): 24 hours after in situ soleus injection at day 2 of unweighting, mersalyl 200 nM aqueous; for Protein, End (day 3 of unweighting) / Protein, Treatment (unweighted muscle): MCP inhibitor 1 mM in DMSO; for Effect (%), change in protein content during day 3 of unweighting: End versus Start (estimated day 2 content); for Effect (%) on unweighted muscle protein / Protein, Treatment (unweighted muscle): Table 3; for Effect (%) on unweighted muscle protein: Treatment versus Vehicle contralateral muscle; for Protein, Treatment (unweighted muscle): treated soleus, contralateral muscle received vehicle, mersalyl 200 nM
Procedure: The effect of several inhibitors on the unweighting atrophy of the soleus muscle in juvenile rats was determined. See Tischler, M. E. (1990) Metabolism 39/7: 756-763 (hereinafter "Tischler--1990") for a general discussion of the procedure.
Juvenile female Sprague-Dawley rates (80-90 g) were tail-cast, hind limb suspended as in Jetspers, S. R. and Tischler, M. E., (1984) J. Appl. Physiol. 57: 1472-1479. The animal's hind limbs were elevated above the floor of the cage with each animal housed individually. Animals had free access to food and water, and were weighed at the time of suspension and at time of termination. During the suspension period the animals were checked daily to ensure that their toes were not touching the floor of the cage, and that there was no swelling of the tail due to the cast.
Each experiment began with the suspension of 20 rats which were randomly divided into 4 groups of 5 animals each. Group A was suspended for just 2 days and provided baseline data to approximate the soleus muscle size in other animals suspended for longer times. Average body weights for the groups at the outset of the study were compared and used as a correction factor for body size differences. […] See Tischler--1990. At 2 days after unweighting commenced, an aqueous solution of mersalyl (200 nM; 4 μl/100 g initial body wt) was injected into one soleus, as described previously. The contralateral muscle was injected with a similar volume of 0.9% saline ("Vehicle"). The animals were maintained under Innovar-vet (10 μl/100 g body wt) tranquilization during the in situ injection procedure. After the injections, the animals were suspended for an additional 24 hours and the soleus was removed. Groups C and D for each experiment were used for testing each of two different embodiments of the disclosed compounds.
Animals were treated as in group B, except that 1 mM MCP inhibitor, contained in dimethysulfoxide (DMSO), was injected into the soleus of one leg and DMSO only into the contralateral soleus. Thus each experiment consisted of two control groups and the testing of MCP inhibitors of the invention. The completion of five such experiments with different pairs of inhibitors provided for an "n" value of 10 for testing each MCP inhibitor and with each tested in two different shipments of animals.
After the animal was sacrificed, the soleus was excised, trimmed of fat and connective tissue, and carefully weighed. The muscle was then homogenized in 10% trichloroacetic acid (TCA) and the precipitated protein pelleted by centrifugation. The pellet was then washed once with 10% TCA and once with ethanol:ether (1:1). The final pellet was solubilized in 4 ml of 1N sodium hydroxide. The sample was then analyzed for protein content by the biuret procedure, using albumin as a standard.
The effect of MCP inhibitors on total muscle protein content was examined primarily by paired comparison with the untreated contralateral muscle. The ratio of contents was calculated and then analyzed statistically by analysis of variance ("ANOVA"). The left leg was always the treated leg so that the protein content ratios could be compared to the non-treated control animals as well. In this way, a significant difference can be shown by comparing the protein content of the two legs, as well as the relative effectiveness of the tested MCP inhibitors. A paired student test was also performed for the effect of each separate treatment. The non-treated control data also provided an estimate of protein content of day 2. This allowed approximation of the protein changes over the 24 hours of treatment for each of the Groups B, C, and D.

SMILES	Protein, End (day 3 of unweighting) [mg/muscle]	Effect (%), change in protein content during day 3 of unweighting [%]	Effect (%) on unweighted muscle protein [%]	Protein, Treatment (unweighted muscle) [mg/muscle]
COC(=O)CCCCCCCC(C(=O)N[C@@H](CCCNC(=N)NS(=O)(=O)c1c(C)c(C)c2c(c1C)CCC(C)(C)O2)C(=O)N[C@H](C=O)CC(C)C)C1CCCC1 (stereo partly drawn) [Compound 20, 9-Methoxycarbonyl-2-cyclopentyl-nonanoyl-N^g-(2,2,5,7,8-pentamethylchroman-6-sulfonyl)-L-arginyl-L-leucinal]	6.2	-4	5	6.2
CC(C)C[C@@H](C=O)NC(=O)[C@H](CCCNC(=N)N[N+](=O)[O-])NC(=O)C(CCCCCCCCC#N)C1CCCC1 (stereo partly drawn) [Compound 14, 10-cyano-2-cyclopentyldecanoyl-N^g-nitro-L-arginyl-L-leucinal]	6.4	0	7	6.4
